What was measured:
[1] = Measurement of log P values by HPLC on reversed phase columns (EEC directive 79/831 Annex V.A8); format: physicochemical; conditions: for LogP [b] / chromatographic logP: LC-MS at pH 2.7, 0.1% formic acid in water / acetonitrile; for LogP [c]: LC-MS at pH 7.8, 0.001 molar ammonium hydrogen carbonate in water / acetonitrile; for chromatographic logP: reversed phase HPLC column, read-out: LogP [b]
Protocol: Measurement of Log P-Values:
Measurement of log P values was performed according EEC directive 79/831 Annex V.A8 by HPLC (High Performance Liquid Chromatography) on reversed phase columns with the following methods:
^[a] Measurement was done at pH 2.3 with 0.1% phosphoric acid and acetonitrile as eluent with a linear gradient from 10% acetonitrile to 95% acetonitrile.
^[b]measurement of LC-MS was done at pH 2.7 with 0.1% formic acid in water and with acetonitrile (contains 0.1% formic acid) as eluent with a linear gradient from 10% acetonitrile to 95% acetonitrile.
^[c] Measurement with LC-MS was done at pH 7.8 with 0.001 molar ammonium hydrogen carbonate solution in water as eluent with a linear gradient from 10% acetonitrile to 95% acetonitrile.
Calibration was done with not branched alkan2-ones (with 3 to 16 carbon atoms) with known log P-values (measurement of log P values using retention times with linear interpolation between successive alkanones). Lambda-maX-values were determined using UV-spectra from 200 nm to 400 nm and the peak values of the chromatographic signals.

Meloidogyne incognita = Meloidogyne incognita test, gall formation on salad seedlings in sand; format: in vivo; conditions: application rate 20 ppm; after 14 days; 100% = no galls found
Protocol: Solvent: 125.0 Parts by Weight of Acetone
To produce a suitable preparation of active compound, 1 part by weight of active compound is mixed with the stated amount of solvent, and the concentrate is diluted with water to the desired concentration.
Vessels are filled with sand, a solution of the active ingredient, a suspension containing eggs and larvae of the southern root-knot nematode (Meloidogyne incognita) and salad seeds. The salad seeds germinate and the seedlings grow. Galls develop in the roots.
After 14 days the nematicidal activity is determined on the basis of the percentage of gall formation. 100% means no galls were found and 0% means the number of galls found on the roots of the treated plants was equal to that in untreated control plants.

Haemonchus contortus = assay: microbe, parasite or virus in culture; conditions: 120 h, read-out: activity (percentage of larval mortality)
Protocol: (§1) Solvent: Dimethyl Sulfoxide
(§2) To produce a suitable preparation of active compound, 10 mg of active compound are dissolved in 0.5 ml solvent, and the concentrate is diluted with “Ringer's solution” to the desired concentration.
Approximately 40 larvae of the red stomach worm (Haemonchus contortus) are transferred into a test tube containing compound solution.
After 5 days percentage of larval mortality are recorded. 100% efficacy means all larvae are killed, 0% efficacy means no larvae are killed.

Cooperia curticei = Cooperia curticei test (COOPCU), larval mortality
Protocol: as §1, §2
Approximately 40 nematode larvae (Cooperia curticei) are transferred into a test tube containing the compound solution.
After 5 days percentage of larval mortality is recorded. 100% efficacy means all larvae are killed; 0% efficacy means no larvae are killed.

| LogP [b] [1] | LogP [c] [1] | SMILES | further results |
| --- | --- | --- | --- |
| 2,63 | 2,62 | O=C(NCC1(c2cccc(Cl)n2)CC1)c1c(F)cccc1F [Example 2] |  |
| 2,51 | 2,5 | O=C(NCC1(c2ccc(Br)cn2)CC1)c1cccnc1C(F)(F)F [Example 10] | nematicidal activity on the basis of the percentage of gall formation (Meloidogyne incognita): 90% |
|  |  | Cn1cc(C(=O)NCC2(c3ncc(C(F)(F)F)cc3Cl)CC2)c(C(F)F)n1 [Example 13, N-[[1-[3-chloro-5-(trifluoromethyl)-2-pyridyl]cyclopropyl]methyl]-3-(difluoromethyl)-1-methyl-pyrazole-4-carboxamide] | nematicidal activity on the basis of the percentage of gall formation (Meloidogyne incognita): 100%; chromatographic logP [1]: 2.63; mortality at 20 ppm (Haemonchus contortus): 80%; mortality at 20 ppm (Cooperia curticei; Cooperia curticei, 120 h, read-out: activity (percentage of larval mortality)): 100% |
| 2,98 | 2,96 | O=C(NCC1(c2cccc(Cl)n2)CC1)c1ccccc1I [Example 3] |  |
| 2,31 | 2,33 | Cn1cc(C(=O)NCC2(c3ccc(Br)cn3)CC2)c(C(F)F)n1 [Example 12] |  |
| ^[b]3,1 ^[c]3,1 | ^[b]3,1 ^[c]3,1 | O=C(NCC1(c2ccc(Br)cn2)CC1)c1ccccc1C(F)(F)F [Example 7] |  |
| 2,42 | 2,41 | O=C(NCC1(c2cccc(Cl)n2)CC1)c1cccnc1C(F)(F)F [Example 1] |  |
| ^[b]2,71 ^[c]2,71 | ^[b]2,71 ^[c]2,71 | O=C(NCC1(c2ccc(Br)cn2)CC1)c1c(F)cccc1F [Example 9] |  |
| 2,25 | 2,24 | Cn1cc(C(=O)NCC2(c3cccc(Cl)n3)CC2)c(C(F)F)n1 [Example 6] |  |
| 3 | 2,99 | O=C(NCC1(c2cccc(Cl)n2)CC1)c1ccccc1C(F)(F)F [Example 4] |  |
|  |  | O=C(NCC1(c2ncc(Br)cc2Cl)CC1)c1cccnc1C(F)(F)F [Example 14, N-{[1-(5-bromo-3-chloropyridin-2-yl)cyclopropyl]methyl}-2-(trifluoromethyl)nicotinamide] | chromatographic logP [1]: 2.88 |
| 3,1 | 3,09 | O=C(NCC1(c2ccc(Br)cn2)CC1)c1ccccc1I [Example 8] |  |

| SMILES | LogP [b] [1] | LogP [c] [1] | further results |
| --- | --- | --- | --- |
| O=C(NCC1(c2ccc(Cl)cn2)CC1)c1ccccc1C(F)(F)F [Example 15] | 2,91 | 2,96 | nematicidal activity on the basis of the percentage of gall formation (Meloidogyne incognita): 70%; activity (percentage of larval mortality) (Cooperia curticei; application rate 20 ppm, after 5 days, 100% = all larvae killed): 90% |
| O=C(NCC1(c2ccc(Br)cn2)CC1)c1cccnc1Cl [Example 11] | 2,17 | 2,18 |  |
| O=C(NCC1(c2cccc(Cl)n2)CC1)c1cccnc1Cl [Example 5] | ^[b]2,11 ^[c]2,11 | ^[b]2,11 ^[c]2,11 |  |
